The text below walks through data of patent EP0151577B1 (priority 1983, dated 1984).

In data set [1] the test system is souris. Kind of data set: Acute toxicity, DL50 i.p. It is filed as in vivo. The procedure:
La valeur DL50 i.p. pour tous ces derives a été trouvée voisine de 800 mg/kg et la valeur DL 50 i.v. est supérieure a 5 g/kg.

For data set [2], the system named is souris. Kind of data set: General pharmacological profile: spontaneous motor activity. The data set is classed as in vivo. Conditions: 100 mg/kg i.p., 15 min after administration, Tableau 3. The source says: (§1) Activite motrice spontanée: MODIGH, K., Central and peripheral effects of 5-hydroxytryptophan on motor activity in mice. Psychopharmacologia (Berlin), 23, 48, 1972. Cadence respiratoire: […], S., and VALZELLI, L. Serotonin and cardiovascular system, Chapter 9, in "Serotonin", Elsevier Publ. Co. Amsterdam 1965.

For data set [3], the system named is souris. The experiment in a line: General pharmacological profile: respiratory rate. The data set is classed as in vivo. The following applies: 100 mg/kg i.p., 15 min after administration, Tableau 3.
Excerpt: as §1
COHEN, Y. and BLANCHARD, P. Influence de la chelation du calcium sur les effets tensionnels de la sérotonine chez le chien. J. Physiol., 52, 569,1960.
BRAUNWALD, E. Control of myocardial oxygen consumption: Physiologic and clinical considerations. Am. J. Cardiol., 27 (4), 416,1971.

For data set [4], the system named is souris. The experiment in a line: Anticonvulsant activity, MES. The data set is classed as in vivo. Conditions: 100 mg/kg i.p., 15 min after administration, Tableau 3. The source says: Activite anticonvulsivante (MES): % de protection Temps de sommeil au pentobarbital: WYATT, R.J., ZARKONE, V. […], K., DEMENT, W.C., SMYDER, F. and SJOERDSMA, A., Effects of 5-Hydroxytryptophan on the sleep of normal human subjects. Electroencephaly and Clinical Neurophysiology 30, 5051971.

Data set [5] relates to souris. Kind of data set: Pentobarbital sleeping time. The data set is classed as in vivo. Conditions: 100 mg/kg i.p., 15 min after administration, Tableau 3.
Protocol: Les mesures ont été faites a 15, 30 et 60 minutes après I'administration par voie intrapéritonéale (i.p.) a des souris.
Data set [6] deals with souris. The experiment in a line: Vertical pole climbing test. Conditions: 100 mg/kg i.p., 15 min after administration. The data set is classed as in vivo.
The test system of data set [7] is souris. The experiment in a line: Motor activity (Photactametre). It is filed as in vivo. Conditions: 100 mg/kg i.p., compared with 5HTP used as control.
The subject of data set [8] is souris. Kind of data set: Anticonvulsant activity, pentylenetetrazol. It is filed as in vivo. Conditions: 100 mg/kg i.p., 15 min after administration.
Data set [9] concerns souris. Kind of data set: Morphine test (antagonism). The data set is classed as in vivo. The following applies: 100 mg/kg i.p., 15 min after administration.
For data set [10], the system named is 5-HT (dans tout le cerveau). The experiment in a line: Amount of serotonin (5-HT) in whole brain, spectrophotofluorometric. It is filed as in vivo, souris. The following applies: 160 mg/kg i.p., 15 min.; Solution Saline 60,0; mean of 4 souris. The source says:
Les quantités de sérotonine ont été estimees par une méthode spectrophotofluorométrique, telle que décrite par Solomon et al. Biochem. Pharmacology 14, 831 (1965). Les résultats de ces essais sont rassemblés dans le Tableau 10 ci-après.
• * Chaque valeur représente la moyenne de quatre animaux d'experience (souris) • ** La concentration de 5-HT est exprimée par gramme de tissu frais (cerveau).

Consider “désoxyribulo-5-hydroxytryptophane [Désoxy ribulo-5HTP]”, for which the “DL50 (ip)en toxicité aigue” value with souris [1] was over 800 mg/kg. Further, the “Activité motrice spontanée” value with souris [2] was “sans effet”. Also, the Cadence respiratoire result in the data set on souris [3] is listed as “sans effet”. Besides, the “Activité anticonvulsivante 1. MES” value with souris [4] was determined as 20%. For the same substance, the “Temps de sommeil au pentobarbital % du témoin (Témoin à 100)” value in the data set with souris [5] was 309,2 % du témoin. The “Essai de grimpé sur un baton vertical” value in the data set on souris [6] is given as “Sans effet”. In addition, in the data set with souris [7], the “Activité motrice (Photactametre)” value is listed as “Augmentation pendant les 40 premières min. et ensuite diminution”. In addition, the “Activité anticonvulsivante 2.Pentylènetetrazol” value with souris [8] came to 0%. For the same substance, the “Essai à la morphine” value with souris [9] was “Négatif (pas d'antagonisme)”. Also, the “Quantités de 5-HT (dans tout le cerveau)” value in data set [10] is 92,5.
